Measurements reported in patent publication US20200109394A1, “COMPOSITIONS AND METHODS FOR ISOLATING CIRCULATING CELLS” (Prescient Pharma LLC, priority 2018, published 2020).

Key:
[1] = test system: CRL-1790 cells (human fibroblasts); assay: Prussian blue iron staining of CRL-1790 cells after incubation in medium with Fe2DG; assay type: cell-based; conditions: Fe2DG 1 mg/ml in DMEM no glucose with 10% FBS, two hours
Experimental: In this third Example, the differential ability of normal vs cancer cells (higher for malignant cells) to accumulate Iron (Fe) from Fe2DG added to medium was studied. For routine maintenance, CCD 841 CoN human colon fibroblast cells (CRL-1790; ATCC, Manassas, Va.) were grown in EMEM complete growth medium (Cat. No. 30-2003; ATCC, Manassas, Va.) supplemented by 10% FBS, and 1× Penicillin/Streptomycin in an incubator at 37° C. and 5% CO2. Cells were passaged every 4 days. For Fe2DG treatments, CCD 841 CoN cells were grown in 25 cm^2 Nunclon Delta Surface flasks (Cat. No. 136196; Thermo Fisher Scientific, Waltham, Mass.) with EMEM complete medium and kept in an incubator at 37° C. and 5% CO2 until close to 75% confluence was reached. Then medium for both cell types was replaced by DMEM no glucose (ThermoFisher Cat. No. 11966025) supplemented by 10% FBS and Fe2DG 1 mg/ml for two hours. Then medium was removed and both flasks were stained by Prussian blue staining kit “Advanced testing Iron stain” (ThermoFisher Cat. No. 87006). Cells in the flasks were fixed by 10% Formalin, then rinsed by deionized water. Then the cells were stained by freshly prepared Working Iron Solution 30 minutes at room temperature. Then the cells were rinsed by deionized water and counterstain by Nuclear Red Satin Solution for 30 seconds. […]

HT29 cells [2] = assay: Depletion of HT29 cells loaded with Fe2DG by external magnet in McCoy's 5A medium (microscopy); assay type: cell-based, human; conditions: Fe2DG 1 mg per 1 ml in McCoy's 5A medium with 10% FBS, RT 1 hour, 30 min inside round magnet vs outside, Hematoxylin stain
Experimental: In this fourth Example, the effect of external magnet on suspension HT29 cells (human adenocarcinoma) in complete McCoy's 5A medium after adding of Fe2DG was studied. Suspension of HT29 cells (ATCC HTB-38) in McCoy's 5A medium with 10% of FBS was count by Countess automated cell counter (Invitrogen). Results: live cells 3.6×10^6/ml, dead cells 1.6×10^5/ml, Viability 96% Fe2DG was added to the cell suspension in final concentration 1 mg per 1 ml. Cells then were incubated in RT for 1 hour. Then the suspension was divided on two portions. Both portions were placed inside of plastic tube (10 cm long, 3 mm in diameter). One tube was placed inside of the round magnet, another tube was outside of the magnet. After incubation for 30 min; contains of both tubes were gently pushed out, and placed on the glass slide, and stained by Hematoxylin. Slides were examined under light microscope Olympus BX51 and pictures were taken using Olympus DP73 digital camera.

HT29 cells [3] = assay: Depletion of Fe2DG-loaded HT29 cells by external magnet from mixture with whole blood (FACS); assay type: cell-based; conditions: Fe2DG 1 mg per 1 ml in human whole blood, RT 2 hours, 30 min inside round magnet vs outside
Experimental: In this Example, the effect of external magnet on suspension HT29 cells (human adenocarcinoma) in whole blood after adding of Fe2DG was studied. For routine maintenance, HT29 cells (ATCC HTB-38) were grown in McCoy's 5A complete growth medium (Cat. No. 30-2007; ATCC, Manassas, Va.) supplemented by 10% FBS, and 1× Penicillin/Streptomycin in an incubator at 37° C. and 5% CO2. Cells were passaged every 4 days. The cells were detached from flasks using trypsin and re-suspended in 5 mL of fresh McCoy's 5A medium. Suspension of HT29 cells (ATCC HTB-38) was count by Countess automated cell counter (Invitrogen). Results: total 1.5×10^6/ml, live cells 1.4×10^6/ml, dead cells 1.3×10^5/ml, Viability 91% Cells were stained by BCECF AM (Life technologies Ref # B1150) intracellular fluorescent dye, according manufacturer instructions. 1 mg of BCECF AM (Invitrogen) was dissolved in 1 ml of DMSO and 10 aliquots were prepared. 1 aliquot was dissolved in 10 ml of Hank's Balanced Salt Solution to make working concentration (0.016 mM). Working solution of BCECF AM was added to HT29 cells suspension (5 ml of BCECF AM 5 ml of HT29 cells suspension in medium) and incubated in room temperature for 30 minutes in the dark. 500 ul of HT29 suspension was added to 4 ml of fresh human volunteer whole blood. Fe2DG in final concentration 1 mg per 1 ml was added. The blood then was incubated in RT for 2 hours. […]

A375-eGFP-puro cells = assay: Enrichment of A375-eGFP-puro cells incubated with Fe2DG by external magnet from mixture with whole human blood (FACS); assay type: cell-based; conditions: Fe2DG 1 mg per 1 ml in human whole blood, RT 2 hours, 30 min in magnet; fraction #2 (tube out of magnet) vs fraction #1, FACS
Experimental: In this second Example, the effect of external magnet on suspension A375-eGFP-puro cells (human melanoma) in whole blood after adding of Fe2DG was studied.
A375-eGFP-puro cells (Imanis Life Science) has enhanced Green Fluorescent Protein as a reporter. And can be detected by fluorescent microscope of FACS because of green fluorescence.
For routine maintenance, A375-eGFP-puro cells were grown in DMEM complete growth medium (Cat. No. 30-2002; ATCC, Manassas, Va.) supplemented by 10% FBS, Penicillin/Streptomycin and 1 ug/ml Puromycin in an incubator at 37° C. and 5% CO2. Cells were passaged every 4 days. The cells were detached from flasks using trypsin and re-suspended in 5 mL of fresh DMEM medium.
500 ul of A375-eGFP-puro cells suspension was added to 4 ml of fresh human volunteer whole blood. Fe2DG in final concentration 1 mg per 1 ml was added. The blood then was incubated in RT for 2 hours. Then the blood was placed inside of plastic tube (10 cm long, 3 mm outside diameter). The tube was placed inside of the round magnet. After incubation for 30 min; 0.1 ml of the blood was gently pushed through the tube and through the magnet. […] After centrifugation for 5 min 1000 rpm and removing of supernatant, the pellet was resuspended in 0.5 ml of PBS and introduced for analysis by BD fluorescence-activated cell sorter (FACS) Aria III.

WBC = assay: Effect on WBC of magnetic trapping in the HT29/whole blood mixture with Fe2DG (FACS); assay type: cell-based; conditions: Fe2DG 1 mg per 1 ml in human whole blood, RT 2 hours, 30 min inside round magnet
Experimental: 500 ul of HT29 suspension was added to 4 ml of fresh human volunteer whole blood. Fe2DG in final concentration 1 mg per 1 ml was added. The blood then was incubated in RT for 2 hours. Then the blood was divided on two portions. Both portions were placed inside of plastic tube (10 cm long, 3 mm outside diameter). One tube was placed inside of the round magnet, another tube was outside of the magnet. After incubation for 30 min; contents of both tubes were gently pushed out. RBC were lysed by adding 4 volumes of distillate water for 30 sec. Then PBS was added to restore osmolarity. After centrifugation for 5 min 1000 rpm and removing of supernatant, the pellet was resuspended in 0.5 ml of PBS and introduced for analysis by BD FACS Aria III

HT29 cells [4] = assay: Prussian blue iron staining of HT29 cells after incubation in medium with Fe2DG; assay type: cell-based, human; conditions: Fe2DG 1 mg/ml in DMEM no glucose with 10% FBS, two hours
Experimental: In this third Example, the differential ability of normal vs cancer cells (higher for malignant cells) to accumulate Iron (Fe) from Fe2DG added to medium was studied. For routine maintenance, HT29 cells (ATCC HTB-38) were grown in McCoy's 5 A complete growth medium (Cat. No. 30-2007; ATCC, Manassas, Va.) supplemented by 10% FBS, and 1× Penicillin/Streptomycin in an incubator at 37° C. and 5% CO2. Cells were passaged every 4 days. For Fe2DG treatments, HT29 cells (ATCC HTB-38) cells were grown in 25 cm^2 Nunclon Delta Surface flasks (Cat. No. 136196; Thermo Fisher Scientific, Waltham, Mass.) with McCoy's 5A complete medium and kept in an incubator at 37° C. and 5% CO2 until close to 75% confluence was reached. Then medium for both cell types was replaced by DMEM no glucose (ThermoFisher Cat. No. 11966025) supplemented by 10% FBS and Fe2DG 1 mg/ml for two hours. Then medium was removed and both flasks were stained by Prussian blue staining kit “Advanced testing Iron stain” (ThermoFisher Cat. No. 87006). Cells in the flasks were fixed by 10% Formalin, then rinsed by deionized water. Then the cells were stained by freshly prepared Working Iron Solution 30 minutes at room temperature. Then the cells were rinsed by deionized water and counterstain by Nuclear Red Satin Solution for 30 seconds. […]

**Q.** For Fe (III)-2 deoxy D glucose [Fe2DG], which “accumulation of iron (Prussian blue stain) in normal human fibroblasts (CRL-1790)” value [1] is on record?
**A.** practically no accumulation of Iron

**Q.** And the “depletion of HT29 cells in the sample pushed out of the tube inside the magnet” value (HT29 cells [2])?
**A.** significant depletion

**Q.** What about the “depletion of BCECF AM stained HT29 cells (gate 4) in the sample pushed out of the tube inside the magnet” value (HT29 cells [3]) of the same substance?
**A.** significant depletion

**Q.** What about the “enrichment of A375-eGFP-puro cells in the second fraction (2nd)” value (A375-eGFP-puro cells) of the same substance?
**A.** 18.5 times

**Q.** And the “specificity of magnetic trapping: effect on WBC” value (WBC)?
**A.** without affect WBC

**Q.** And the “accumulation of iron (Prussian blue stain) in cancer cells (HT29)” value (HT29 cells [4])?
**A.** significant accumulation of iron
